Reference: paper PMC10384602 (Pharmaceuticals, 2023)

Columns and labels:
[1] = logD7.4 in octanol/buffer mixture; type: physicochemical; details: pH 7.4, room temperature
[2] = Radiochemical stability of the formulated product on standing at room temperature; type: physicochemical; details: after standing for 90 min at room temperature

O=C(Cc1ccccc1)Nc1nnc(CCSCCc2nnc(N[11C](=O)Cc3ccccc3)s2)s1 [[^11C]BPTES]
logD [1]: 3.59
radiochemical purity after standing [2]: > 95%
